Where “and” joins values, the source holds several entries; their conditions need not be identical. Identical values can stand only once.
System: Fibroblasts of a normal human
Experiment: Test for determining activity of fibroblast to enhance type I collagen production (ELISA of culture medium)
Assay type: cell-based
Conditions: positive control, 25 μM, 24 h, n=6
Protocol: Fibroblasts of a normal human were cultured for 24 hours in 0.5% FBS-DMEM culture medium containing the test sample, and the amount of collagen in the culture medium was quantified by ELISA. The test was carried out by repeating six times for each condition (n=6). As a positive control (P.C.), magnesium ascorbyl phosphate (VCPMg) was used. The test samples employed were the calcined hydroxyapatite that is produced in the Production Example 1 and the non-calcined hydroxyapatite that is used in the Production Example 2.

Question: For `O=C1O[C@H]([C@@H](O)CO)C([O-])=C1OP(=O)([O-])[O-].O=C1O[C@H]([C@@H](O)CO)C([O-])=C1OP(=O)([O-])[O-].[Mg+2].[Mg+2].[Mg+2]` [VC-PMg, magnesium ascorbyl phosphate], which “Collagen Mean ± SD” value is on record?
Answer: 24.28 ± 1.06 μg/mg protein and 19.75 ± 1.11 μg/mg protein
